Measurements published in patent US10434101B2, “Heterocyclic compounds and uses thereof” (Celgene CAR LLC, priority 2010, dated 2019).

Key:
[1] = target: EGFR double mutation L858R/T790M (H1975 cells) (Homo sapiens (Human), UniProt P00533, L858R/T790M); experiment: Phospho-EGFR signaling (immunoblotting, 1 hr) in H1975 cells; format: cell-based; details: signaling EC50 WT (A431) / H1975
Protocol: (§1) A431 human epidermoid carcinoma, H1975 human NSCLC and HCC827 human NSCLC adenocarcinoma cells were obtained from the American Type Culture Center (Manassas, Va.). A431 cells were grown in DMEM (Invitrogen, Carlsbad, Calif.) supplemented with 10% FBS (HyClone, South Logan, Utah) and 1% Penicillin-Streptomycin (P/S, Lonza, Walkersville, Md.).
All primary antibodies were obtained from Cell Signaling (Danvers, Mass.) and used at 1:1000. Secondary antibodies were used at 1:10,000. Goat anti-mouse IgG IRDye 800CW antibody was obtained from LiCor Biosciences (Lincoln, Nebr.) and goat anti-rabbit IgG Alexa Fluor 680 was obtained from Invitrogen.
Cells were grown in 12-well plates (Corning, Coring, N.Y.) to 90% confluence and then incubated in low-serum (0.1% FBS) media for 16-18 hr. […] A431 cells were then stimulated with 50 ng/ml EGF (Peprotech, Rocky Hill, N.J.) for 15 min. After treatment, cell monolayers were washed with cold PBS (Invitrogen) and immediately lysed by scrapping into 60 uL cold Cell Extraction Buffer (Invitrogen) supplemented with Complete Protease inhibitors (Roche, Indianapolis, Ind.) and PhosphoSTOP (Roche) phosphatase inhibitors.
Phospho-protein signals were quantitated using Odyssey Infrared Imaging (Li-Cor Biosciences).
To assess phosphor-EGFR signaling, blots were probed with rabbit anti-Phospho-EGFR (Y1068) and mouse total anti-EGFR antibodies. Phospho-EGFR signal was normalized to total EGFR expression for each sample. […] Normalized data was fitted using a sigmoidal curve analysis program (Graph Pad Prism version 5) with variable Hill slope to determine the EC50 values.

[2] = test system: A431 cells (WT EGFR); experiment: Cell proliferation (CellTiter Glo, 72 hr) in A431 cells; format: cell-based; details: Homo sapiens, A-431; A431 cells, 72 hr; read-out: WT EGFR GI50
Protocol: as §1
(§2) Cells were plated in Growth Media supplemented with 5% FBS and 1% P/S at a density of 3,000 cells per well in 96 well tissue culture plates (Corning). […] Growth inhibition (GI50) values were determined by Graph Pad Prism.

[3] = test system: H1975 cells (EGFR L858R/T790M); experiment: Cell proliferation (CellTiter Glo, 72 hr) in H1975 cells; format: cell-based, human; details: Homo sapiens, NCI-H1975; H1975 cells, 72 hr; read-out: H1975 GI50
Protocol: as §1, §2

[4] = test system: HCC827 cells (EGFR delE746-A750); experiment: Cell proliferation (CellTiter Glo, 72 hr) in HCC827 cells; format: cell-based, human; details: Homo sapiens; HCC827 cells, 72 hr; read-out: HCC827 GI50
Protocol: as §1, §2

Compound	Ratio WT/mutant (H1975) [1]	GI50 [2] [µM]	GI50 [3] [µM]	GI50 [4] [µM]
C=CC(=O)Nc1cccc(Oc2nc(Nc3ccc(N4CCOCC4)cc3OC)ncc2C(F)(F)F)c1 [Compound I-1, N-(3-(2-(2-methoxy-4-morpholinophenylamino)-5-(trifluoromethyl)pyrimidin-4-yloxy)phenyl)acrylamide]	>50	> 1	0.01 to 0.1	0.01 to 0.1
C=CC(=O)Nc1cccc(Oc2nc(Nc3ccc(N4CCN(C(=O)CO)CC4)cc3OC)ncc2Cl)c1 [Compound I-3, N-(3-(5-chloro-2-(4-(4-(2-hydroxyacetyl)piperazin-1-yl)-2-methoxyphenylamino)pyrimidin-4-yloxy)phenyl)acrylamide]	>5	> 1	0.1 to 0.5	0.01 to 0.1
C=CC(=O)Nc1cccc(Oc2nc(Nc3ccc(N4CCOCC4)cc3OC)ncc2Cl)c1 [Compound I-5, N-(3-(5-chloro-2-(2-methoxy-4-morpholinophenylamino)pyrimidin-4-yloxy)phenyl)acrylamide]	>30	> 1	0.1 to 0.5	0.01 to 0.1
C=CC(=O)Nc1cccc(Nc2nc(Nc3ccc(N4CCCN(C(C)=O)CC4)cc3OC)ncc2C(F)(F)F)c1 [Compound I-7, N-(3-(2-(4-(4-acetyl-1,4-diazepan-1-yl)-2-methoxyphenylamino)-5-(trifluoromethyl)pyrimidin-4-ylamino)phenyl)acrylamide]	>5	> 1	0.1 to 0.5	0.1 to 0.5
C=CC(=O)Nc1cccc(Oc2nc(Nc3ccc(N4CCN(S(C)(=O)=O)CC4)cc3OC)ncc2Cl)c1 [Compound I-26, N-(3-(5-chloro-2-(2-methoxy-4-(4-(methylsulfonyl)piperazin-1-yl)phenylamino)pyrimidin-4-yloxy)phenyl)acrylamide]	>40	> 1	> 1	0.01 to 0.1
C=CC(=O)Nc1cccc(Nc2nc(Nc3ccc(N4CCN(C(C)=O)CC4)cc3OC(F)(F)F)ncc2C(F)(F)F)c1 [Compound I-33, N-(3-(2-(4-(4-acetylpiperazin-1-yl)-2-(trifluoromethoxy)phenylamino)-5-(trifluoromethyl)pyrimidin-4-ylamino)phenyl)acrylamide]	>50	> 1	0.01 to 0.1	0.1 to 0.5
C=CC(=O)Nc1cccc(Oc2nc(Nc3ccc(N4CCCOCC4)cc3OC)ncc2Cl)c1 [Compound I-37, N-(3-(5-chloro-2-(2-methoxy-4-(1,4-oxazepan-4-yl)phenylamino)pyrimidin-4-yloxy)phenyl)acrylamide]		> 1	0.5 to 1	0.1 to 0.5
C=CC(=O)Nc1cccc(Oc2nc(Nc3ccc(N4CCCN(C(=O)OC(C)(C)C)CC4)cc3OC)ncc2C(F)(F)F)c1 [Compound I-39, tert-butyl 4-(4-(4-(3-acrylamidophenoxy)-5-(trifluoromethyl)pyrimidin-2-ylamino)-3-methoxyphenyl)-1,4-diazepane-1-carboxylate]		> 1	> 1	> 1
C=CC(=O)Nc1cccc(Nc2nc(Nc3ccc(N4CCN(C(C)=O)CC4)cc3OC)ncc2Br)c1 [Compound I-40, N-(3-(2-(4-(4-acetylpiperazin-1-yl)-2-methoxyphenylamino)-5-bromopyrimidin-4-ylamino)phenyl)acrylamide]	>1	0.5 to 1	0.1 to 0.5	0.01 to 0.1
C=CC(=O)Nc1cccc(Nc2nc(Nc3ccc(N4CCN(S(C)(=O)=O)CC4)cc3OC)ncc2Cl)c1 [Compound I-41, N-(3-(5-chloro-2-(2-methoxy-4-(4-(methylsulfonyl)piperazin-1-yl)phenylamino)pyrimidin-4-ylamino)phenyl)acrylamide]	>1	> 1	0.1 to 0.5	0.01 to 0.1
C=CC(=O)Nc1cccc(Nc2nc(Nc3ccc(N4CCN(C(=O)OC(C)(C)C)[C@H](C(=O)OC)C4)cc3OC)ncc2C(F)(F)F)c1 [Compound I-50, (S)-1-tert-butyl 2-methyl 4-(4-(4-(3-acrylamidophenylamino)-5-(trifluoromethyl)pyrimidin-2-ylamino)-3-methoxyphenyl)piperazine-1,2-dicarboxylate]		> 1	0.1 to 0.5	0.01 to 0.1

Results, then the molecule that gave them:

Ratio WT/mutant (H1975) [1]	GI50 [2] [µM]	GI50 [3] [µM]	GI50 [4] [µM]	Compound
>20	0.5 to 1	0.01 to 0.1	0.01 to 0.1	C=CC(=O)Nc1cccc(Nc2nc(Nc3ccc(N4CCN(C(=O)CO)CC4)cc3OC)ncc2C(F)(F)F)c1 [Compound I-6, N-(3-(2-(4-(4-(2-hydroxyacetyl)piperazin-1-yl)-2-methoxyphenylamino)-5-(trifluoromethyl)pyrimidin-4-ylamino)phenyl)acrylamide]
>1	0.5 to 1	0.1 to 0.5	0.01 to 0.1	C=CC(=O)Nc1cccc(Nc2nc(Nc3ccc(N4CCN(C(C)=O)CC4)cc3OC)ncc2Cl)c1 [Compound I-8, N-(3-(2-(4-(4-acetylpiperazin-1-yl)-2-methoxyphenylamino)-5-chloropyrimidin-4-ylamino)phenyl)acrylamide]
>15	> 1	0.1 to 0.5	0.01 to 0.1	C=CC(=O)Nc1cccc(Oc2nc(Nc3ccc(N4CCN(C(=O)CO)CC4)cc3OC)ncc2C(F)(F)F)c1 [Compound I-11, N-(3-(2-(4-(4-(2-hydroxyacetyl)piperazin-1-yl)-2-methoxyphenylamino)-5-(trifluoromethyl)pyrimidin-4-yloxy)phenyl)acrylamide]
>1	0.5 to 1	0.1 to 0.5	0.01 to 0.1	C=CC(=O)Nc1cccc(Nc2nc(Nc3ccc(N4CCN(C(=O)CO)CC4)cc3OC)ncc2Cl)c1 [Compound I-12, N-(3-(5-chloro-2-(4-(4-(2-hydroxyacetyl)piperazin-1-yl)-2-methoxyphenylamino)pyrimidin-4-ylamino)phenyl)acrylamide]
>5	0.5 to 1	0.1 to 0.5	0.01 to 0.1	C=CC(=O)Nc1cccc(Oc2nc(Nc3ccc(N4CCN(C(=O)NC)CC4)cc3OC)ncc2C(F)(F)F)c1 [Compound I-21, 4-(4-(4-(3-acrylamidophenoxy)-5-(trifluoromethyl)pyrimidin-2-ylamino)-3-methoxyphenyl)-N-methylpiperazine-1-carboxamide]
>35	> 1	0.1 to 0.5	0.01 to 0.1	C=CC(=O)Nc1cccc(Oc2nc(Nc3ccc(N4CCN(S(C)(=O)=O)CC4)cc3OC)ncc2C(F)(F)F)c1 [Compound I-22, N-(3-(2-(2-methoxy-4-(4-(methylsulfonyl)piperazin-1-yl)phenylamino)-5-(trifluoromethyl)pyrimidin-4-yloxy)phenyl)acrylamide]
>35	> 1	0.1 to 0.5	0.01 to 0.1	C=CC(=O)Nc1cccc(Nc2nc(Nc3ccc(N4CCN(C(=O)C(C)(C)C)CC4)cc3OC)ncc2C(F)(F)F)c1 [Compound I-34, N-(3-(2-(2-methoxy-4-(4-pivaloylpiperazin-1-yl)phenylamino)-5-(trifluoromethyl)pyrimidin-4-ylamino)phenyl)acrylamide]
	> 1	0.1 to 0.5	0.01 to 0.1	C=CC(=O)Nc1cccc(Oc2nc(Nc3ccc(N4CCOCC4)cc3OC(F)F)ncc2Cl)c1 [Compound I-36, N-(3-(5-chloro-2-(2-(difluoromethoxy)-4-morpholinophenylamino)pyrimidin-4-yloxy)phenyl)acrylamide]
	> 1	> 1	0.5 to 1	C=CC(=O)Nc1cccc(Nc2nc(Nc3ccc(N4CCCOCC4)cc3OC)ncc2C(F)(F)F)c1 [Compound I-38, N-(3-(2-(2-methoxy-4-(1,4-oxazepan-4-yl)phenylamino)-5-(trifluoromethyl)pyrimidin-4-ylamino)phenyl)acrylamide]
>5	> 1	0.5 to 1	0.5 to 1	C=CC(=O)Nc1cccc(Nc2nc(Nc3ccc(N4CCCN(C(=O)OC(C)(C)C)CC4)cc3OC)ncc2C(F)(F)F)c1 [Compound I-44, tert-butyl 4-(4-(4-(3-acrylamidophenylamino)-5-(trifluoromethyl)pyrimidin-2-ylamino)-3-methoxyphenyl)-1,4-diazepane-1-carboxylate]
